Assay results from patent US8906916B2, “Pyrimidine derivatives as FAK inhibitors” (Merck Patent GmbH, priority 2010, dated 2014).

These compounds were tested against focal adhesion kinase (FAK) (Homo sapiens, UniProt Q05397) (assay: FAK kinase assay (autophosphorylation), 384-well flashplate). Details: FAK inhibition, enzymatic autophosphorylation assay, 1 μM ATP.
Type: biochemical
Method: FAK Kinase Assay (Autophosphorylation)
The focal adhesion kinase (FAK) assay is carried out either as a 384-well flashplate assay (for example for Topcount measurements) or as a 384-well image flashplate assay (for LEADseeker measurements). 2 nM FAK, 400 nM biotinylated substrate (His-TEV-hsFAK (31 686)(K454R) x biotin) and 1 μM ATP (to which […] of 33P-ATP/well has been added) are incubated at 30° C. for 2 hours with or without test compound in a total volume of 50 μl (60 mM Hepes, 10 mM MgCl2, 1.2 mM dithiothreitol, 0.02% of Brij35, 0.1% of BSA, pH 7.5). The reaction is stopped using 25 μl of 200 mM EDTA. After 30 min at 30° C., the liquid is removed, and each well is washed three times with 100 μl of 0.9% sodium chloride solution. Non-specific reaction is determined in the presence of 1 μM EMD 1076893/0(PF-562271). The radioactivity is measured using Topcount (in the case of the use of flashplates) or using LEADseeker (in the case of the use of image flashplates). Results (for example IC50 values) are calculated using, for example, a Symyx Assay Explorer.

Sequence of focal adhesion kinase (FAK) (Q05397 whole entry): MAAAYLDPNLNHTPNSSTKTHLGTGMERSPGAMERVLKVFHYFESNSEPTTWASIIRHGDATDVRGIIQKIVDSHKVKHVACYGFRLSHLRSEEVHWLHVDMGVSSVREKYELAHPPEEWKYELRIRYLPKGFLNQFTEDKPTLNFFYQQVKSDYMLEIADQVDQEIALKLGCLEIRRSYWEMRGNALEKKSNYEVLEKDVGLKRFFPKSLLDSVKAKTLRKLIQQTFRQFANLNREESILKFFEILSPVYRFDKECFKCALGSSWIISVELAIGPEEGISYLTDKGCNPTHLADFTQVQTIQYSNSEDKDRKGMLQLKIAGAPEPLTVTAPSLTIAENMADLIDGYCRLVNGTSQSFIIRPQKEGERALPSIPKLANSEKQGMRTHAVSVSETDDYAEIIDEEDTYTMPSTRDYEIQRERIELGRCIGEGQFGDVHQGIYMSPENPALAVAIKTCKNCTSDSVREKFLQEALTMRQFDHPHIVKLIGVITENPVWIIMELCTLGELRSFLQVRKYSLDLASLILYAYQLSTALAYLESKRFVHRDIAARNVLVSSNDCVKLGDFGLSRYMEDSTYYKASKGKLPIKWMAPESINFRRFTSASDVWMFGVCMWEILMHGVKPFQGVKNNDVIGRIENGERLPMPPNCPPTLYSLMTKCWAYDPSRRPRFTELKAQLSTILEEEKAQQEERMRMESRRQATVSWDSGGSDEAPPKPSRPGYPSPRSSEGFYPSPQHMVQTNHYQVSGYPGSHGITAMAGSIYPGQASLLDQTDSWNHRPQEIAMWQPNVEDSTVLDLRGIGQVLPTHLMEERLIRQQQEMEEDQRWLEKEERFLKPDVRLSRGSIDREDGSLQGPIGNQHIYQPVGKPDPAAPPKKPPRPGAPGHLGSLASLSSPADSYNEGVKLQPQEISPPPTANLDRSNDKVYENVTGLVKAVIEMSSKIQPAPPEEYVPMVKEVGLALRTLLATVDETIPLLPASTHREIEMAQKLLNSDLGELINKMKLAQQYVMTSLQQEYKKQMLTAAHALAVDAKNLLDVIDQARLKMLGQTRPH

First: CN(c1ccccc1CCc1ccnc(Nc2ccc(S(C)(=O)=O)cc2)n1)S(C)(=O)=O [A1, N-(2-{2-[2-(4-methanesulfonylphenylamino)pyrimidin-4-yl]ethyl}-phenyl)-N-methylmethanesulfonamide]
Second: CNC(=O)Cc1ccc(Nc2nccc(CCc3ccccc3N(C)S(C)(=O)=O)n2)cc1 [A32]
The IC50 of the first is higher: 3 to 50 µM for the first, 0.3 to 3 µM for the second. The second is the more potent here.

`CN(c1ccccc1CCc1ccnc(Nc2ccc3c(c2)CCC(=O)N3)n1)S(C)(=O)=O` [A2, N-methyl-N-(2-{2-[2-(2-oxo-1,2,3,4-tetrahydroquinolin-6-ylamino)pyrimidin-4-yl]ethyl}phenyl)methanesulfonamide] and `CN(c1ccccc1CCc1ccnc(Nc2ccc3c(c2)CC(=O)N3)n1)S(C)(=O)=O` [A5] cannot be ordered by IC50: under 0.3 µM for the first, under 0.3 µM for the second.

First: CS(=O)(=O)c1cccc(CCc2ccnc(Nc3ccc4c(c3)CCC(=O)N4)n2)c1 [A3]
Second: CN(c1ncccc1CCc1ccnc(Nc2ccc3c(c2)CCC(=O)N3)n1)S(C)(=O)=O [A7]
The IC50 of the first is higher: 3 to 50 µM for the first, 0.3 to 3 µM for the second.

Compared with `CN(c1ncccc1CCc1ccnc(Nc2ccc3c(c2)CC(=O)N3)n1)S(C)(=O)=O` [A6], `Cc1cnc(N(C)S(C)(=O)=O)c(CCc2ccnc(Nc3ccc4c(c3)CC(=O)N4)n2)c1` [A44] is lower in IC50: 0.3 to 3 µM for the first, under 0.3 µM for the second.

`N#CCc1ccccc1CCc1ccnc(Nc2ccc3c(c2)CC(=O)N3)n1` [A9] and `N#CCc1ccc(F)cc1CCc1ccnc(Nc2ccc3c(c2)CC(=O)N3)n1` [A11] fall in the same range of IC50: 0.3 to 3 µM for the first, 0.3 to 3 µM for the second.

Compared with `N#CC1(c2ccccc2CCc2ccnc(Nc3ccc4c(c3)CC(=O)N4)n2)CCC1` [A13], `N#CC1(c2ccc(F)cc2CCc2ccnc(Nc3ccc4c(c3)CC(=O)N4)n2)CCC1` [A45] is lower in IC50: 0.3 to 3 µM for the first, under 0.3 µM for the second.

First: N#CC1(c2ncccc2CCc2ccnc(Nc3ccc4c(c3)CC(=O)N4)n2)CNC1 [A16, 3-(3-{2-[2-(2-oxo-2,3-dihydro-1H-indol-5-ylamino)pyrimidin-4-yl]ethyl}pyridin-2-yl)azetidine-3-carbonitrile]
Second: N#CC1(c2cc(F)ccc2CCc2ccnc(Nc3ccc4c(c3)CC(=O)N4)n2)CCC1 [A46]
The IC50 of the first is higher: 3 to 50 µM for the first, 0.3 to 3 µM for the second.

`CN(c1ncccc1CCc1ccnc(Nc2ccc3[nH]c(=O)oc3c2)n1)S(C)(=O)=O` [A20] and `CN(c1ccccc1CCc1ccnc(Nc2ccc3[nH]c(=O)oc3c2)n1)S(C)(=O)=O` [A27] fall in the same range of IC50: 0.3 to 3 µM for the first, 0.3 to 3 µM for the second.

`CN1C(=O)Cc2cc(Nc3nccc(CCc4cccnc4N(C)S(C)(=O)=O)n3)ccc21` [A21] and `CN(c1ncccc1CCc1ccnc(Nc2ccc3c(c2)n(C)c(=O)n3C)n1)S(C)(=O)=O` [A25] fall in the same range of IC50: 0.3 to 3 µM for the first, 0.3 to 3 µM for the second.

First: CN(c1ncccc1CCc1ccnc(Nc2cccc(C#N)c2)n1)S(C)(=O)=O [A22]
Second: CN(c1ccccc1CCc1ccnc(Nc2cccc(C#N)c2)n1)S(C)(=O)=O [A28]
The IC50 of the first is higher: 3 to 50 µM for the first, 0.3 to 3 µM for the second. The second is the more potent here.

First: CN(c1ccccc1CCc1ccnc(Nc2ccc(F)c(C#N)c2)n1)S(C)(=O)=O [A29]
Second: CN(c1ccccc1CCc1ccnc(Nc2ccc3sc(=O)[nH]c3c2)n1)S(C)(=O)=O [A30]
The IC50 of the first is higher: 3 to 50 µM for the first, 0.3 to 3 µM for the second. The second is the more potent here.

First: CC(=O)N1CCc2cc(Nc3nccc(CCc4ccccc4N(C)S(C)(=O)=O)n3)ccc21 [A31]
Second: CN(c1ccccc1CCc1ccnc(Nc2ccc(N3CCCC3=O)cc2)n1)S(C)(=O)=O [A35]
The IC50 of the first is lower: under 0.3 µM for the first, 0.3 to 3 µM for the second. The first is the more potent here.

`CN(c1ccccc1CCc1ccnc(Nc2ccc(N3CCOCC3=O)cc2)n1)S(C)(=O)=O` [A33] and `CN(c1ncccc1CCc1ccnc(Nc2ccc(N3CCOCC3=O)cc2)n1)S(C)(=O)=O` [A41] fall in the same range of IC50: 0.3 to 3 µM for the first, 0.3 to 3 µM for the second.

Compared with `CN(c1ccccc1CCc1ccnc(Nc2ccc(NC(=O)c3cccnc3)cc2)n1)S(C)(=O)=O` [A34], `CN(c1ncccc1CCc1ccnc(Nc2ccc(NC(=O)c3cccnc3)cc2)n1)S(C)(=O)=O` [A40] is higher in IC50: under 0.3 µM for the first, 0.3 to 3 µM for the second.

`CN(c1ccccc1CCc1ccnc(Nc2cc(Cl)c(N3CCCC3=O)c(Cl)c2)n1)S(C)(=O)=O` [A36] and `CN(c1ncccc1CCc1ccnc(Nc2ccc(N3CCCC3=O)cc2)n1)S(C)(=O)=O` [A39] fall in the same range of IC50: 0.3 to 3 µM for the first, 0.3 to 3 µM for the second.

`CN(c1ccccc1CCc1ccnc(Nc2ccc(N3C(=O)c4ccccc4C3=O)cc2)n1)S(C)(=O)=O` [A38] and `CN(c1ncccc1CCc1ccnc(Nc2ccc(N3C(=O)c4ccccc4C3=O)cc2)n1)S(C)(=O)=O` [A43] fall in the same range of IC50: 0.3 to 3 µM for the first, 0.3 to 3 µM for the second.

`O=C1CCc2cc(Nc3ncc(Br)c(CCc4ccccc4)n3)ccc2N1` [A101] and `O=C1CCc2cc(Nc3ncc(C(F)(F)F)c(CCc4ccccc4)n3)ccc2N1` [A103] fall in the same range of IC50: 0.3 to 3 µM for the first, 0.3 to 3 µM for the second.

Work on `O=C1Cc2cc(Nc3ncc(C(F)(F)F)c(CCc4ccccc4)n3)ccc2N1` [A102] yielded an IC50 of 0.3 to 3 µM.

These compounds were tested against T1, FAK (Homo sapiens, UniProt Q05397) (assay: Cellular testing of FAK kinase inhibitors: autophosphorylation of FAK at tyrosine 397 in HT29 cells (Luminex)). Details: FAK inhibition, P-Y397-FAK in HT29 cells, 30 min, serum-free.
T1 construct: HT29 cells are sown out with 30,000 cells per well; endogenous in cells; host or cells: HT29
Type: cell-based
Method: Method for the Cellular Testing of FAK Kinase Inhibitors
For analysis of the cellular activity of FAK, the extent of autophosphorylation of FAK at tyrosine 397 is determined with the aid of a Luminex-based assay in the 96-well format. HT29 cells are sown out with 30,000 cells per well in 100 μl of medium (90% of DMEM/10% of FCS) and incubated on the following day for 30 min with a serial dilution of the test substance (7 concentrations) under serum-free conditions. The cells are subsequently lysed using 90 μl of lysis buffer (20 mM tris/HCl pH 8.0, 150 mM NaCl, 1% of NP40, 10% of glycerol, 1% of phosphatase inhibitor II, 20 mM p-glycerol phosphate, 0.1% of protease inhibitor cocktail III, 0.01% of benzonase) per well, and the lysates are separated off from insoluble cell constituents by means of centrifugation through a 96-well filter plate (0.65 μm). The lysates are incubated at 4° C. overnight with shaking with Luminex beads to which an anti-total FAK antibody is coupled. The detection is carried out on the following day by addition of a P-Y397-FAK antibody and a species-specific PE-labelled secondary antibody. P-Y397-FAK is detected by measurement in the Luminex100 instrument by determination of 100 events per cavity in a measurement time of 60 sec. As pharmacological blank, the signals obtained from cells treated with 30 μM of an FAK reference inhibitor are subtracted from all other batches. The control value used for maximum phosphorylation of FAK at Y397 are the signals from cells treated only with the solvent (0.3% of DMSO). The values of the batches treated with test substance are calculated therefrom as percent of control, and IC50 values are determined by means of Assay Explorer.

T1 sequence (Q05397 whole entry): as above

`CN(c1ccccc1CCc1ccnc(Nc2ccc3c(c2)CCC(=O)N3)n1)S(C)(=O)=O` [A2, N-methyl-N-(2-{2-[2-(2-oxo-1,2,3,4-tetrahydroquinolin-6-ylamino)pyrimidin-4-yl]ethyl}phenyl)methanesulfonamide] and `CC(=O)N1CCc2cc(Nc3nccc(CCc4ccccc4N(C)S(C)(=O)=O)n3)ccc21` [A31] fall in the same range of IC50: 3 to 50 µM for the first, 3 to 50 µM for the second.

`CN(c1ncccc1CCc1ccnc(NCc2ccc(=O)[nH]n2)n1)S(C)(=O)=O` [A24] and `CN(c1ncccc1CCc1ccnc(Nc2ccc3c(c2)n(C)c(=O)n3C)n1)S(C)(=O)=O` [A25] fall in the same range of IC50: 3 to 50 µM for the first, 3 to 50 µM for the second.

`CN(c1ccccc1CCc1ccnc(Nc2ccc(NC(=O)c3cccnc3)cc2)n1)S(C)(=O)=O` [A34] and `CN(c1ccccc1CCc1ccnc(Nc2ccc(N3CCCCC3=O)c(C#N)c2)n1)S(C)(=O)=O` [A37] fall in the same range of IC50: 0.3 to 3 µM for the first, 0.3 to 3 µM for the second.
